From paper PMC10256634, “Comparative in vivo toxicokinetics of silver powder, nanosilver and soluble silver compounds after oral administration to rats” (Archives of Toxicology, 2023)
Values joined by “and” are separate entries in the source; they are usually repeats but may differ in a detail not shown here. Equal entries are not always repeated.

Legend:
[1] = Total Ag content in tissues after 28 days repeated oral dosing (ICP-MS); type: in vivo, Sprague–Dawley rats
Text: Comparative TK data for the various test items were obtained after single doses, and repeated dose administration for 28 days. This was based on measurement of Ag levels in whole blood at various timepoints, and also total Ag content in tissues (in the repeated dose study phase). This approach facilitated a direct quantitative comparison of parameters such as bioavailability, achieved systemic exposure and the delivered Ag dose to tissues after administration of the different Ag test items. Determination of single-dose p.o. and i.v. blood-level profiles was intended to provide information on absolute bioavailability (F value). Parallel vehicle control groups were included within each phase.
(§1) Following final blood sampling, animals were euthanised using carbon dioxide asphyxiation, with subsequent exsanguination, prior to macroscopic examination for the investigation of any abnormalities. Tissues for analysis of total Ag content were obtained from animals administered the test items for 28 days. The tissue set comprised: brain (whole), bone marrow (from both femurs), small intestine (duodenum/ileum/jejenum), liver, spleen, ovaries, testes (excluding epididymides) and uterus. The luminal contents of GI tract samples were thoroughly flushed out with cold purified water. After weighing, tissues were retained frozen (− 20 °C).
Analysis occurred within the 48-day assured stability period.
All bioanalytical methods underwent validation before deployment.

[2] = Clinical observations, bodyweight, organ weights and macroscopic examination; type: in vivo, Sprague–Dawley rats; conditions: repeated dose study, 175 mg AgAc/kg bw/d
Procedure: Animals were inspected visually at least twice daily for evidence of clinical signs or change in health status. As applicable, injection sites were regularly assessed post-dosing for any local reaction. Bodyweight was measured for all single-dose treatments before administration (typically the day before treatment), on the day of administration and on the day of termination. For the 28-day repeated administration phase, the bodyweight of each animal was recorded pre-treatment, on Day 1 of treatment and then at weekly intervals (including on the day of termination).
as §1

serum copper (Cu) levels = assay: Serum Cu levels after 28 days repeated oral dosing (ICP-MS); conditions: for Serum Cu conc. % of Control group mean: mean (SD)
Procedure: Samples of whole blood (0.2 mL) were obtained from the jugular vein of animals, with lithium heparin integrated as an anticoagulant. […] Each sample was gently mixed and frozen on dry ice, pending transfer to storage at − 20 °C. […] Serum was obtained by centrifugation (10 min, 2000 RCF) and stored frozen until analysis.
Previous robust TK studies involving the analysis of Ag in biological matrices have utilised aggressive digestion techniques, typically based on digestion/mineralisation in concentrated HNO3 with microwave-accelerated reaction systems. To avoid subsequent precipitation of Ag into insoluble complexes and subsequent loss for analysis, sample stabilisation with an excess of chloride (e.g. HCl) is appropriate. These principles were adopted for sample processing in this investigation. In brief, each blood subsample (50 µL) was combined with 800 µL concentrated HNO3 (65–70%) in a glass pyrex tube. The contents were then digested in an Ultrawave (Milestone, Italy) digester using digestion programme ‘blood’. Afterwards, 800 μL HCl (37%) was added, and 400 μL of the HNO3/HCl digest was combined with 2.60 mL of rhodium internal standard followed by rotary mixing for at least 30 min. The processed sample was then analysed on an Agilent 7900 × inductively coupled plasma mass spectrometer (ICP-MS). […] The digestion was 20 min at elevated temperature and pressure (200 °C, 100 bar, 1500 W). Then, 3 parts of concentrated HCl (35–40%) were added, and the digest was stored at − 20 °C until analysis. A 50 µL subsample was subsequently mixed with 3.95 mL of rhodium internal standard and analysed by ICP-MS. Analysis occurred within the 48-day assured stability period.
All bioanalytical methods underwent validation before deployment. ICP-MS runs included quality control samples and a multilevel calibration. Lower limits of quantitation (LLOQ) for the analytical methods were, respectively, 10 ng/mL for total Ag in blood, 5 ng/mL for total Ag in tissue and 30 ng Cu/mL for Cu in serum.

[3] = 28 d oral 5 mg/kg bw/d [Ag equivalent 3.25 AgAc, 3.2 AgNO3]
[4] = 28 d oral 5 mg/kg bw/d [Ag equivalent 3.25 AgAc, 3.2 AgNO3], female
[5] = 28 d oral 5 mg/kg bw/d [Ag equivalent 3.25 AgAc, 3.2 AgNO3], male
[6] = 28 d oral 175 [114 Ag] mg/kg bw/d
[7] = 28 d oral 175 [114 Ag] mg/kg bw/d, female
[8] = 28 d oral 175 [114 Ag] mg/kg bw/d, male
[9] = 28 d oral 125 [80 Ag] mg/kg bw/d, female
[10] = 28 d oral 125 [80 Ag] mg/kg bw/d, male
[11] = 28 d oral 125 [80 Ag] mg/kg bw/d

CC(=O)[O-].[Ag+] [AgAc, Silver(I) acetate]
Silver level in ovary [1, 3]: 2197 ng Ag/g tissue
Silver level in testis [1, 3]: 167 ng Ag/g tissue
Silver level in uterus [1, 3]: 188 ng Ag/g tissue
Silver level in GI tract [1, 4]: 3797 ng Ag/g tissue
Silver level in bone marrow [1, 4]: 126 ng Ag/g tissue
Silver level in brain [1, 4]: 169 ng Ag/g tissue
Silver level in liver [1, 4]: 305 ng Ag/g tissue
Silver level in spleen [1, 4]: 990 ng Ag/g tissue
Silver level in GI tract [1, 5]: 2770 ng Ag/g tissue
Silver level in bone marrow [1, 5]: 62 ng Ag/g tissue
Silver level in brain [1, 5]: 142 ng Ag/g tissue
Silver level in liver [1, 5]: 55.4 ng Ag/g tissue
Silver level in spleen [1, 5]: 283 ng Ag/g tissue
Silver level in ovary [1, 6]: 39668 ng Ag/g tissue
Silver level in testis [1, 6]: 1531 ng Ag/g tissue
Silver level in uterus [1, 6]: 11094 ng Ag/g tissue
Silver level in GI tract [1, 7]: 103814 ng Ag/g tissue
Silver level in bone marrow [1, 7]: 46761 ng Ag/g tissue
Silver level in brain [1, 7]: 1455 ng Ag/g tissue
Silver level in liver [1, 7]: 21872 ng Ag/g tissue
Silver level in spleen [1, 7]: 141560 ng Ag/g tissue
Silver level in GI tract [1, 8]: 83211 ng Ag/g tissue
Silver level in bone marrow [1, 8]: 21373 ng Ag/g tissue
Silver level in brain [1, 8]: 1458 ng Ag/g tissue
Silver level in liver [1, 8]: 22660 ng Ag/g tissue
Silver level in spleen [1, 8]: 96379 ng Ag/g tissue
Ag in tissue concentrations, comparison between test items ([1]; 28 d oral, matched 35–36 mg Ag/kg bw/d, silver acetate vs nanosilver or silver powder, nanosilver vs silver powder (except spleen of male animals), p < 0.05): significantly higher in all tissues
bodyweight [2]: slight depression in weight gain during Week 1

O=[N+]([O-])[O-].[Ag+] [AgNO3, silver(I) nitrate]
Serum Cu conc. % of Control group mean (serum copper (Cu) levels; 28 d oral 5 [3.2 Ag] mg/kg bw/d, female): 101 (10) % of Control group mean
Serum Cu conc. % of Control group mean (serum copper (Cu) levels; 28 d oral 5 [3.2 Ag] mg/kg bw/d, male): 111 (25) % of Control group mean
Serum Cu conc. % of Control group mean (serum copper (Cu) levels; 28 d oral 55 [35 Ag] mg/kg bw/d, female): 81 (11) % of Control group mean
Serum Cu conc. % of Control group mean (serum copper (Cu) levels; 28 d oral 55 [35 Ag] mg/kg bw/d, male): 79 (13) % of Control group mean
Serum Cu conc. % of Control group mean (serum copper (Cu) levels; [9]): 74 % of Control group mean and 74 (15) % of Control group mean
Serum Cu conc. % of Control group mean (serum copper (Cu) levels; [10]): 62 % of Control group mean and 62 (12) % of Control group mean
Effect on circulating Cu levels (serum copper (Cu) levels; 28 d oral, AgMP up to limit dose 1000 mg/kg bw/d, AgNO3 detectable at 55, statistically significant at 125 mg/kg bw/d): reduction in circulating Cu levels was observed
Silver level in ovary [1, 3]: 1484 ng Ag/g tissue
Silver level in testis [1, 3]: 231 ng Ag/g tissue
Silver level in uterus [1, 3]: 145 ng Ag/g tissue
Silver level in GI tract [1, 4]: 2438 ng Ag/g tissue
Silver level in bone marrow [1, 4]: 87 ng Ag/g tissue
Silver level in brain [1, 4]: 177 ng Ag/g tissue
Silver level in liver [1, 4]: 130 ng Ag/g tissue
Silver level in spleen [1, 4]: 722 ng Ag/g tissue
Silver level in GI tract [1, 5]: 1310 ng Ag/g tissue
Silver level in bone marrow [1, 5]: 73 ng Ag/g tissue
Silver level in brain [1, 5]: 142 ng Ag/g tissue
Silver level in liver [1, 5]: 81.7 ng Ag/g tissue
Silver level in spleen [1, 5]: 404 ng Ag/g tissue
Silver level in ovary [1, 11]: 44025 ng Ag/g tissue
Silver level in testis [1, 11]: 1464 ng Ag/g tissue
Silver level in uterus [1, 11]: 22466 ng Ag/g tissue
Silver level in GI tract [1, 9]: 14798 ng Ag/g tissue
Silver level in bone marrow [1, 9]: 25200 ng Ag/g tissue
Silver level in brain [1, 9]: 1019 ng Ag/g tissue
Silver level in liver [1, 9]: 16024 ng Ag/g tissue
Silver level in spleen [1, 9]: 62335 ng Ag/g tissue
Silver level in GI tract [1, 10]: 10592 ng Ag/g tissue
Silver level in bone marrow [1, 10]: 46553 ng Ag/g tissue
Silver level in brain [1, 10]: 1091 ng Ag/g tissue
Silver level in liver [1, 10]: 28859 ng Ag/g tissue
Silver level in spleen [1, 10]: 54070 ng Ag/g tissue
